Assay results taken from ChEMBL document CHEMBL1201862, “PubChem BioAssay data set” (2004).
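Values below derive from 48-hour exposures of cells grown in 96-well plates, with endpoints linearly interpolated between the two concentrations bracketing the appropriate inhibition level. The concentration for 50% growth inhibition is given as GI50.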 The source made the active and inactive calls. Rule as the data show it: active = GI50 up to about 1.1 µM and inactive = higher.

How the values were obtained:
Assay in all cases: NCI-60 cell line screen, 48 h
[1] = system: HCT-116
[2] = system: M14
[3] = system: A498
[4] = system: UO-31
[5] = system: OVCAR-3
[6] = system: OVCAR-8
[7] = system: HT-29
[8] = system: MDA-MB-435
[9] = system: IGROV-1
[10] = system: BT-549
[11] = system: RPMI-8226
[12] = system: LOX IMVI
[13] = system: NCI-H23
[14] = system: SK-MEL-2
[15] = system: T47D
[16] = system: SK-OV-3
[17] = system: HCT-15
[18] = system: 786-0
[19] = system: K562

Row | SMILES | GI50 [1] | GI50 [2] | GI50 [3] | GI50 [4] | GI50 [5] | GI50 [6] | GI50 [7] | GI50 [8] | GI50 [9] | GI50 [10] | GI50 [11] | GI50 [12] | GI50 [13] | GI50 [14] | GI50 [15] | GI50 [16] | GI50 [17] [µM] | GI50 [18] | GI50 [19]
1 | CC(C)(C)C(=O)Nc1cccc(-c2ccc[nH]2)n1 | > 100 µM (inactive) | > 100 µM (inactive) | > 100 µM (inactive) | > 96.8 µM (inactive) | > 83.8 µM (inactive) | > 100 µM (inactive) | > 100 µM (inactive) | > 44.9 µM (inactive) | > 100 µM (inactive) | > 100 µM (inactive) | < 0.01 µM (active) | > 100 µM (inactive) | > 100 µM (inactive) | > 100 µM (inactive) | > 57.5 µM (inactive) | > 100 µM (inactive) | > 100 | > 100 µM (inactive) | 
2 | CC1(C)OCC(C2CCC3(C)C4=CCC5C(C)(C)C(O)CCC5(C)C4CCC23C)CC(O)C1O (stereo not drawn) | 13.2 µM (inactive) | 16.9 µM (inactive) | 24.7 µM (inactive) | 16.7 µM (inactive) | 14.6 µM (inactive) | 17.5 µM (inactive) | 18.2 µM (inactive) | 16.4 µM (inactive) | 18.7 µM (inactive) | 15.9 µM (inactive) | 6.75 µM (inactive) | 17.1 µM (inactive) | 17.8 µM (inactive) | 16.3 µM (inactive) | 8.61 µM (inactive) | 18.3 µM (inactive) | 15.8 | 13.4 µM (inactive) | 4.22 µM (inactive)
3 | CCN(CC)CCOc1ccc(N2Cc3ccccc3C2=O)cc1 | > 10 µM (inactive) | > 10 µM (inactive) | > 10 µM (inactive) | > 10 µM (inactive) | > 10 µM (inactive) | > 10 µM (inactive) | > 10 µM (inactive) | > 10 µM (inactive) | > 10 µM (inactive) | > 10 µM (inactive) | > 10 µM (inactive) | > 10 µM (inactive) | > 10 µM (inactive) | > 10 µM (inactive) | > 10 µM (inactive) | > 10 µM (inactive) | > 10 | > 10 µM (inactive) | > 10 µM (inactive)
4 | COCCc1c(C)c(C#N)c2n(C)c3ccccc3n2c1=O | > 10 µM (inactive) | > 10 µM (inactive) | > 10 µM (inactive) |  | > 10 µM (inactive) | > 10 µM (inactive) | > 10 µM (inactive) | > 10 µM (inactive) | > 10 µM (inactive) | > 10 µM (inactive) | > 10 µM (inactive) | > 10 µM (inactive) | > 10 µM (inactive) | > 10 µM (inactive) | > 10 µM (inactive) | > 10 µM (inactive) | > 10 | > 10 µM (inactive) | 0.566 µM (active)
5 | C1=C\SS/C=C\SS/C=C\SS/C=C\SS/1 | > 100 µM (inactive) | 83.9 µM (inactive) | > 100 µM (inactive) | > 100 µM (inactive) |  | 44.8 µM (inactive) | 31.6 µM (inactive) | > 100 µM (inactive) | > 100 µM (inactive) | > 100 µM (inactive) | 58.7 µM (inactive) | 42.4 µM (inactive) | > 100 µM (inactive) | > 100 µM (inactive) | > 100 µM (inactive) | > 100 µM (inactive) | 21.5 | 46 µM (inactive) | 27.9 µM (inactive)
6 | COc1cc2nc(-c3cccs3)nc(N3C(c4ccc(O)cc4)=NNC(=O)c4ccccc43)c2cc1OC | 32.4 µM (inactive) | 29.5 µM (inactive) | > 100 µM (inactive) | 19 µM (inactive) |  | 36.1 µM (inactive) | 23.1 µM (inactive) | 26.2 µM (inactive) | 32.7 µM (inactive) | 21 µM (inactive) | 15 µM (inactive) | 22.3 µM (inactive) | 27.5 µM (inactive) | 26.9 µM (inactive) | 29.2 µM (inactive) | 38 µM (inactive) | 32 | 52.8 µM (inactive) | 17.5 µM (inactive)
7 | CCOc1ccccc1/N=N/C1C(=O)N(C(=O)CC(=O)Nc2ccccc2C)N=C1C (stereo not drawn) | 44.4 µM (inactive) | > 100 µM (inactive) | 29.2 µM (inactive) | 27.2 µM (inactive) | 87.9 µM (inactive) | 39 µM (inactive) | > 100 µM (inactive) | > 100 µM (inactive) | 45 µM (inactive) | 65.5 µM (inactive) | 43.9 µM (inactive) | > 100 µM (inactive) | 59.7 µM (inactive) | 38.4 µM (inactive) | 51.9 µM (inactive) | 19.7 µM (inactive) | 20.9 | 46.9 µM (inactive) | 
